Measured values: patent US20090280069A1, “PROGUANIL TO TREAT SKIN/MUCOSAL DISEASES” (Tolmar, Inc., priority 2008, published 2009)
Like-named read-outs stand apart in the source and are kept apart here.

Columns and labels:
Format in all cases: cell-based
[1] = test system: Gardnerella vaginalis ATCC 14018; assay: time kill assay, G. vaginalis
Experimental: A time kill assay was used to test the effects of varying concentrations of proguanil on a culture of Gardnerella vaginalis ATCC 14018. An inoculum of G. vaginalis was prepared and inoculated in vials containing Brain Heart Infusion/Hemoglobin broth containing proguanil concentrations of 160, 80, 16, 8, 1.6 μg/ml. A growth control using phosphate buffered saline A (PBSA) plus a Brain Heart Infusion/Hemoglobin broth was used in place of the drug because it has no antimicrobial effect. DGME was the solvent used to dissolve the proguanil, accordingly, 10% DGME in broth was used as the solvent control. These inoculated broth solutions were then allowed to incubate for a period of 72 hours. Samples were taken at 0, 4, 24, 48 and 72 hours and spiral plated so the CFU/ml could be calculated.

[2] = test system: Trichomonas vaginalis ATCC 30001; assay: viability over time assay, T. vaginalis; settings: for viability at 10 µg/mL / viability at 20 µg/mL / viability at 40 µg/mL / viability at 80 µg/mL / viability at 160 µg/mL / viability at 320 µg/mL: Trichomonas vaginalis, ATCC30001
Experimental: Trichomonas vaginalis infections in females usually involves vaginal discharge and vulvovaginal irritation but is usually asymptomatic in males. A viability over time assay was used to test the effects of varying concentrations of proguanil on a culture of the protozoa Trichomonas vaginalis ATCC 30001. A suspension of T. vaginalis was prepared and inoculated into microtiter plate wells containing supplemented Trichomonas Medium and proguanil concentrations of 320, 160, 80, 40, 20, and 10 μg/ml. A growth control using pyrogen-free water plus supplemented Trichomonas medium was used in place of the drug because it has no antiprotozoal effect. DGME was the solvent used to dissolve the proguanil, accordingly, a small amount of 10% DGME was used as the solvent control in the medium. These inoculated broth solutions were then allowed to incubate for a period of 6 hours. Samples were taken at 1, 3, and 6 hours and observed using a phase contrast microscope. Multiple microscope fields were counted and the number of viable and nonviable T. vaginalis recorded. In the experiment, the effects of proguanil on the T. vaginalis were observed as loss of flagella movement, loss of undulating membrane movement, and loss of cell refractivity.

[3] = test system: Staphylococcus aureus ATCC 6538-P; assay: time kill assay, S. aureus
Experimental: Staphylococcus aureus infections can lead to many skin diseases. Impetigo, furuncles, folliculitis, and carbuncles are all diseases caused by an infection of S. aureus. A microbiological study used a time kill assay with Staphylococcus aureus ATCC 6538-P as an indicator of the antibacterial activity of proguanil. […] A broth only control as well as a solvent 10% DGME control were added to the vials so that the total test volume was 15 ml. One hundred μl of a freshly grown suspension of the Staphylococcus aureus was then added at time zero so that the initial bacterial suspension was between 10^3 and 10^4 CFU/ml. All test and control suspensions were then incubated under aerobic conditions at 35° C. […] These plates were incubated aerobically at 35° C. for 1-3 days. Surviving colonies were then counted and the CFU/ml of test and control suspensions calculated and graphed.

## CC(C)NC(=N)NC(=N)Nc1ccc(Cl)cc1 [Proguanil, N-(4-Chlorophenyl)-N′-(1-methylethyl)imidodicarbonimidic diamide]
[1]; 160 μg/ml and 80 μg/ml, 4 hours through 72 hours
  effect on the bacteria: killing effect
[1]; 16, 8, and 1.6 μg/ml
  inhibition of growth: no or little inhibition of growth
[1]; 160 and 80 μg/ml, T=24, 48 and 72 hours
  CFU/ml: 0 CFU/ml
[1]; Gardnerella vaginalis ATCC 14018
  Relative Sensitivity (Compared to Other Strains Tested): Very Sensitive
[1]; Gardnerella vaginalis ATCC 14018, level at which partial or total inhibition of growth is observed
  Approximate Inhibitory Level: 80 µg/mL
[2]; 10 ug/ml, 1 Hour
  Nonviable: 24
  Viable: 26
[2]; 10 ug/ml, 3 Hour
  Nonviable: 25
  Viable: 25
[2]; 10 ug/ml, 6 Hour
  Nonviable: 25
  Viable: 25
[2]; 20 ug/ml, 1 Hour
  Nonviable: 19
  Viable: 31
[2]; 20 ug/ml, 3 Hour
  Nonviable: 28
  Viable: 22
[2]; 20 ug/ml, 6 Hour
  Nonviable: 29
  Viable: 21
[2]; 40 ug/ml, 1 Hour
  Nonviable: 22
  Viable: 28
[2]; 40 ug/ml, 3 Hour
  Nonviable: 25
  Viable: 25
[2]; 40 ug/ml, 6 Hour
  Nonviable: 27
  Viable: 26
[2]; 80 ug/ml, 1 Hour
  Nonviable: 28
  Viable: 22
[2]; 80 ug/ml, 3 Hour
  Nonviable: 32
  Viable: 18
[2]; 80 ug/ml, 6 Hour
  Nonviable: 34
  Viable: 8
[2]; 80 μg/ml, at 3 and 6 hours
  effect on T. vaginalis viability: next greatest effect
[2]; 160 ug/ml, 1 Hour
  Nonviable: 30
  Viable: 20
[2]; 160 ug/ml, 3 Hour
  Nonviable: 27
  Viable: 24
[2]; 160 ug/ml, 6 Hour
  Nonviable: 43
  Viable: 9
[2]; 160 μg/ml, at 6 hours
  effect on T. vaginalis: strong inhibition and killing effect
[2]; 320 ug/ml, 1 Hour
  Nonviable: 32
  Viable: 18
[2]; 320 ug/ml, 3 Hour
  Nonviable: 40
  Viable: 13
[2]; 320 ug/ml, 6 Hour
  Nonviable: 14
  Viable: 0
[2]; 320 μg/ml, at 1 hour
  effect on T. vaginalis: early inhibition and killing effect
[2]; 320 μg/ml, at 6 hours
  surviving T. vaginalis: no surviving T. vaginalis could be observed
[2]; Trichomonas vaginalis (parasitic protozoan) ATCC 30001
  Relative Sensitivity (Compared to Other Strains Tested): Very Sensitive
[2]; Trichomonas vaginalis (parasitic protozoan) ATCC 30001, level at which partial or total inhibition of growth is observed
  Approximate Inhibitory Level: 80 µg/mL
[2]; 10 ug/ml, 1 Hour, read-out: PerCent Viable
  viability at 10 µg/mL: 52%
[2]; 10 ug/ml, 1 Hour, read-out: Percent Viable of Growth Control
  viability at 10 µg/mL: 118%
[2]; 10 ug/ml, 3 Hour, read-out: PerCent Viable
  viability at 10 µg/mL: 50%
[2]; 10 ug/ml, 3 Hour, read-out: Percent Viable of Growth Control
  viability at 10 µg/mL: 96.2%
[2]; 10 ug/ml, 6 Hour, read-out: PerCent Viable
  viability at 10 µg/mL: 50%
[2]; 10 ug/ml, 6 Hour, read-out: Percent Viable of Growth Control
  viability at 10 µg/mL: 86.2%
[2]; 20 ug/ml, 1 Hour, read-out: PerCent Viable
  viability at 20 µg/mL: 62%
[2]; 20 ug/ml, 1 Hour, read-out: Percent Viable of Growth Control
  viability at 20 µg/mL: 140%
[2]; 20 ug/ml, 3 Hour, read-out: PerCent Viable
  viability at 20 µg/mL: 44%
[2]; 20 ug/ml, 3 Hour, read-out: Percent Viable of Growth Control
  viability at 20 µg/mL: 84.6%
[2]; 20 ug/ml, 6 Hour, read-out: PerCent Viable
  viability at 20 µg/mL: 42%
[2]; 20 ug/ml, 6 Hour, read-out: Percent Viable of Growth Control
  viability at 20 µg/mL: 72.4%
[2]; 40 ug/ml, 1 Hour, read-out: PerCent Viable
  viability at 40 µg/mL: 56%
[2]; 40 ug/ml, 1 Hour, read-out: Percent Viable of Growth Control
  viability at 40 µg/mL: 126%
[2]; 40 ug/ml, 3 Hour, read-out: PerCent Viable
  viability at 40 µg/mL: 50%
[2]; 40 ug/ml, 3 Hour, read-out: Percent Viable of Growth Control
  viability at 40 µg/mL: 96.2%
[2]; 40 ug/ml, 6 Hour, read-out: PerCent Viable
  viability at 40 µg/mL: 49.1%
[2]; 40 ug/ml, 6 Hour, read-out: Percent Viable of Growth Control
  viability at 40 µg/mL: 84.6%
[2]; 80 ug/ml, 1 Hour, read-out: PerCent Viable
  viability at 80 µg/mL: 44%
[2]; 80 ug/ml, 1 Hour, read-out: Percent Viable of Growth Control
  viability at 80 µg/mL: 99.4%
[2]; 80 ug/ml, 3 Hour, read-out: PerCent Viable
  viability at 80 µg/mL: 36%
[2]; 80 ug/ml, 3 Hour, read-out: Percent Viable of Growth Control
  viability at 80 µg/mL: 69.2%
[2]; 80 ug/ml, 6 Hour, read-out: PerCent Viable
  viability at 80 µg/mL: 19%
[2]; 80 ug/ml, 6 Hour, read-out: Percent Viable of Growth Control
  viability at 80 µg/mL: 32.8%
[2]; 160 ug/ml, 1 Hour, read-out: PerCent Viable
  viability at 160 µg/mL: 40%
[2]; 160 ug/ml, 1 Hour, read-out: Percent Viable of Growth Control
  viability at 160 µg/mL: 90.4%
[2]; 160 ug/ml, 3 Hour, read-out: PerCent Viable
  viability at 160 µg/mL: 47.1%
[2]; 160 ug/ml, 3 Hour, read-out: Percent Viable of Growth Control
  viability at 160 µg/mL: 90.5%
[2]; 160 ug/ml, 6 Hour, read-out: PerCent Viable
  viability at 160 µg/mL: 17.3%
[2]; 160 ug/ml, 6 Hour, read-out: Percent Viable of Growth Control
  viability at 160 µg/mL: 29.8%
[2]; 320 ug/ml, 1 Hour, read-out: PerCent Viable
  viability at 320 µg/mL: 36%
[2]; 320 ug/ml, 1 Hour, read-out: Percent Viable of Growth Control
  viability at 320 µg/mL: 81.3%
[2]; 320 ug/ml, 3 Hour, read-out: PerCent Viable
  viability at 320 µg/mL: 24.5%
[2]; 320 ug/ml, 3 Hour, read-out: Percent Viable of Growth Control
  viability at 320 µg/mL: 47.2%
[2]; 320 ug/ml, 6 Hour, read-out: PerCent Viable
  viability at 320 µg/mL: 0%
[2]; 320 ug/ml, 6 Hour, read-out: Percent Viable of Growth Control
  viability at 320 µg/mL: 0%
[3]; 160 μg/ml, all time points, similar to the DGME solvent control
  inhibition of the bacteria: slight inhibition
[3]; 320 μg/ml, by the 24 hour time point and later through 72 hours
  kill of S. aureus: complete kill
[3]; 1280, 640, and 480 μg/ml, by the 4 hour time point and later through 72 hours
  kill of the bacteria: complete kill
[3]; Staphylococcus aureus ATCC-6538P
  Relative Sensitivity (Compared to Other Strains Tested): Moderately
[3]; Staphylococcus aureus ATCC-6538P, level at which partial or total inhibition of growth is observed
  Approximate Inhibitory Level: 320 µg/mL
